The source made the active and inactive calls. The calls are words filed in the database; no cut-off is given here.
Columns and labels:
MDA-MB-231 [1] = assay: Antiproliferative activity against human MDA-MB-231 cells assessed as growth inhibition at 10 uM after 72 hrs by SRB assay; type: functional; settings: MDA-MB-231, 72 h, read-out: GI
MDA-MB-435 [2] = assay: Antiproliferative activity against human MDA-MB-435 cells assessed as growth inhibition at 10 uM after 72 hrs by SRB assay; type: functional; settings: MDA-MB-435, 72 h, read-out: GI
Nucleic Acid [3] = assay: Induction of DNA intercalation in Escherichia coli pBR322 plasmid DNA assessed as supercoiled DNA formation at 100 uM after 1 hr by agarose gel electrophoresis; type: nucleic-acid assay
MDA-MB-435 [4] = assay: Antiproliferative activity against human MDA-MB-435 cells after 72 hrs by SRB assay; type: functional, cell-based; settings: MDA-MB-435, 72 h
PC-3 = assay: Antiproliferative activity against human PC3 cells after 72 hrs by SRB assay; type: functional, cell-based; settings: PC-3, 72 h
MDA-MB-231 [5] = assay: Antiproliferative activity against human MDA-MB-231 cells after 72 hrs by SRB assay; type: functional, cell-based; settings: MDA-MB-231, 72 h
HepG2 = assay: Antiproliferative activity against human HepG2 cells after 72 hrs by SRB assay; type: functional, cell-based; settings: HepG2, 72 h
Bos taurus = species: Bos taurus; assay: Inhibition of calf thymus topoisomerase 1 assessed as relaxation of pBR322 DNA at 100 uM after 30 mins by agarose gel electrophoresis
[6] = biological target: DNA topoisomerase 2-alpha (Homo sapiens) (UniProt P11388); assay: Inhibition of human recombinant topoisomerase 2alpha assessed as relaxation of pBR322 DNA at 100 uM after 30 mins by agarose gel electrophoresis
[7] = biological target: DNA topoisomerase 2-alpha (Homo sapiens) (UniProt P11388); settings: 100 uM
Description: Inhibition of human recombinant topoisomerase 2 alpha assessed as topoisomerase poison activity by measuring generation of linear DNA using circular supercoiled DNA at 100 uM by agarose gel electrophoresis

MDA-MB-231 [8] = assay: Inhibition of topoisomerase in human MDA-MB-231 cells assessed as ATM phosphorylation at Ser1981 residue at 10 uM after 24 hrs by western blot analysis; type: cell-based
Nucleic Acid [9] = assay: Induction of DNA intercalation in Escherichia coli pBR322 plasmid DNA assessed as supercoiled DNA formation at 10 ug/ml after 1 hr by agarose gel electrophoresis; type: nucleic-acid assay

Chain of DNA topoisomerase 2-alpha (Homo sapiens) (P11388 whole entry): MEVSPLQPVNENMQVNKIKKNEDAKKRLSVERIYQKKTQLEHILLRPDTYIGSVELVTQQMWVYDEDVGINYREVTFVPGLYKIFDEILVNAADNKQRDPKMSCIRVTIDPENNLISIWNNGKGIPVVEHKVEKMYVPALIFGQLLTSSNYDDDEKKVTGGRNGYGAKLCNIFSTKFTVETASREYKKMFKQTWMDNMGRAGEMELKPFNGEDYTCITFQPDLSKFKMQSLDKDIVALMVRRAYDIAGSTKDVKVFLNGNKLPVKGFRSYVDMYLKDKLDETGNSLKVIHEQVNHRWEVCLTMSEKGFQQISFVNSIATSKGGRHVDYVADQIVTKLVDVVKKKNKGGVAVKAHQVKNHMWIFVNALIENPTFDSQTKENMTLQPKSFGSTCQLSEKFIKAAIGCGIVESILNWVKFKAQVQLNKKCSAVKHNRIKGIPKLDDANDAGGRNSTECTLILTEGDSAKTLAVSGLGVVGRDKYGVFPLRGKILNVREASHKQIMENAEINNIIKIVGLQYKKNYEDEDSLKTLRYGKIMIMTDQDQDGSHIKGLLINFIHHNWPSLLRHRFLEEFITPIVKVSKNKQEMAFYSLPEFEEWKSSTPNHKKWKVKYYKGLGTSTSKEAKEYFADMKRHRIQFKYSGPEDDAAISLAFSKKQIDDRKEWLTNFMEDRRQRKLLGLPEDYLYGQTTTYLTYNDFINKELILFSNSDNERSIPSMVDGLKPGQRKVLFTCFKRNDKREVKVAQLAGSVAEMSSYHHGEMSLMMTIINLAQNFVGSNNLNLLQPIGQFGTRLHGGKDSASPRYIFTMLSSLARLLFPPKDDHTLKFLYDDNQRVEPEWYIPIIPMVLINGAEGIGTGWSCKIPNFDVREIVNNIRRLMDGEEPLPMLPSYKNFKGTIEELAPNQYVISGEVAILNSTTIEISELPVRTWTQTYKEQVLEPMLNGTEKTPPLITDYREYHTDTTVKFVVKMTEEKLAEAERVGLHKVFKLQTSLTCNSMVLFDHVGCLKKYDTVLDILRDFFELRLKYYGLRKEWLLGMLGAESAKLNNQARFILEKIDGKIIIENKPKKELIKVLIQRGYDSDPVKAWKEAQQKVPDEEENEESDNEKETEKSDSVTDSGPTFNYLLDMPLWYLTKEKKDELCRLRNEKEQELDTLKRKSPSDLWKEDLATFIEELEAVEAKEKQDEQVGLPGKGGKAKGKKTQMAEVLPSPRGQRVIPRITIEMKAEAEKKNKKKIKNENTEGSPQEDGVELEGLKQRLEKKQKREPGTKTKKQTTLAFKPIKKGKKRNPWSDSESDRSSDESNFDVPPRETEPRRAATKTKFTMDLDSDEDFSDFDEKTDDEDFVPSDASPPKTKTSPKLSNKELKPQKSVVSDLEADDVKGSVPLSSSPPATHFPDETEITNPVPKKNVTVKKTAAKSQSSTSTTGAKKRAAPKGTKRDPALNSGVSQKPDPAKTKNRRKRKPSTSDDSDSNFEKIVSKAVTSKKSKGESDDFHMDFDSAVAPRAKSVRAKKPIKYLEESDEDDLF

Compound: Oc1ccc(-c2cc3cc(O)ccc3o2)cc1
- inhibition of growth at 10 µM (MDA-MB-231 [1]): 29.5%
- inhibition of growth at 10 µM (MDA-MB-435 [2]): 13.8%

Compound: COc1cccc2c1C(=O)c1c(O)c3c(c(O)c1C2=O)C[C@@](O)(C(=O)CO)C[C@@H]3O[C@H]1C[C@H](N)[C@H](O)[C@H](C)O1
- Activity (Nucleic Acid [3]): Active

Compound: O=[N+]([O-])c1cccc(-c2cc3cc([N+](=O)[O-])ccc3o2)c1
- inhibition of growth at 10 µM (MDA-MB-231 [1]): 17.3%
- inhibition of growth at 10 µM (MDA-MB-435 [2]): 4.3%

Compound: Oc1ccc2cc(-c3ccc4c(c3)OCO4)ccc2c1
- inhibition of growth at 10 µM (MDA-MB-231 [1]): 66.3%
- IC50 (MDA-MB-435 [4]): 3.9 µM
- IC50 (PC-3): 10.8 µM
- IC50 (MDA-MB-231 [5]): 8.5 µM
- IC50 (HepG2): 2.6 µM
- inhibition of growth at 10 µM (MDA-MB-435 [2]): 86.9%

Compound: Oc1ccc2oc(-c3ccc4c(c3)OCO4)cc2c1
- inhibition of growth at 10 µM (MDA-MB-231 [1]): 3.6%
- inhibition of growth at 10 µM (MDA-MB-435 [2]): 11.2%

Compound: CC[C@@]1(O)C(=O)OCc2c1cc1n(c2=O)Cc2cc3cc(O)ccc3nc2-1
- inhibition (Bos taurus): Active

Compound: COc1cc([C@@H]2c3cc4c(cc3[C@@H](O[C@@H]3O[C@@H]5CO[C@@H](C)O[C@H]5[C@H](O)[C@H]3O)[C@H]3COC(=O)[C@H]23)OCO4)cc(OC)c1O [ETOPOSIDE]
- inhibition of growth at 10 µM (MDA-MB-231 [1]): 71%
- inhibition [6]: Active
- IC50 (MDA-MB-435 [4]): 1.7 µM
- inhibition [7]: Active
- IC50 (PC-3): 1 µM
- IC50 (MDA-MB-231 [5]): 3.6 µM
- IC50 (HepG2): 30 µM
- inhibition (MDA-MB-231 [8]): Active
- inhibition of growth at 10 µM (MDA-MB-435 [2]): 96.1%

Compound: OCc1ccc(-c2cc3cc(O)ccc3o2)cc1
- inhibition of growth at 10 µM (MDA-MB-231 [1]): 10.6%
- inhibition of growth at 10 µM (MDA-MB-435 [2]): 42.6%

Compound: CC[N+](C)(CC)CCC[n+]1c(-c2ccccc2)c2cc(N)ccc2c2ccc(N)cc21
- Activity (Nucleic Acid [9]): Active

From ChEMBL document CHEMBL3621070, “Design and synthesis of 2-phenylnaphthalenoids and 2-phenylbenzofuranoids as DNA topoisomerase inhibitors and antitumor agents” (Eur J Med Chem, 2015)
